# Laboratory results reported in patent publication US7981460B2, “Substituted benzyl ester derivative and use thereof” (Ajinomoto Co., Inc., priority 2006, dated 2011).
# Values joined by “and” are separate entries in the source; they are usually repeats but may differ in a detail not shown here. Equal entries are not always repeated.
# Test system: auricle of hairless mouse (HR-1, female)
# Test: External blood circulation enhancing action: vasodilatory effect (red spots) on auricle of hairless mouse
# Format: in vivo
# Set-up: key to Vasodilatory effect for hairless mouse (red spots, visual): ◯: clear red spots can be confirmed; Δ: weak red spots can be confirmed; x: no development of red spots
# Details: 1 wt % in liquid paraffin, applied to right ear
# Experimental: The compound of each Example and capsaicin analog were compared for vasodilatory effect using auricle of hairless mouse. [Test method] A sample was applied to the right ear of hairless mouse (HR-1, female), and a control was applied to the left ear. Presence or absence of red spots development was visually evaluated, and evaluated according to the following indices. ◯: clear red spots can be confirmed Δ: weak red spots can be confirmed x: no development of red spots The samples were dissolved in liquid paraffin or ethanol. samples: Control: liquid paraffin or ethanol
row,Structure (SMILES),"Vasodilatory effect for hairless mouse (red spots, visual)"
1,"COc1cc(CNC(=O)CCCC/C=C/C(C)C)ccc1O [capsaicin, reference compound]",∘
2,"COc1cc(COC(=O)CCCCCCC(C)C)ccc1O [dihydrocapsiate, 4-hydroxy-3-methoxybenzyl 8-methylnonanoate, reference compound]",Δ
3,"COc1cc(COC(=O)CCCCCC(C)C)ccc1O [nordihydrocapsiate, 4-hydroxy-3-methoxybenzyl 7-methyl-octanoate, reference compound]",Δ
4,"COc1cc(COC(=O)CCCC/C=C/C(C)C)ccc1O [capsiate, 4-hydroxy-3-methoxybenzyl (E)-8-methyl-6-nonenoate, reference compound]",Δ

# Same assay, conditions: 5 wt % in ethanol
row,Structure (SMILES),Vasodilatory effect in words
1,"CCC(C)CCCCCC(=O)OCc1ccc(OC)c(O)c1 (stereo not shown) [compound B-2, Isovanillyl 7-methyl Nonanoate]",vasodilatory effect was observed

# Same assay, conditions: 5 wt % in ethanol, applied to right ear
row,Structure (SMILES),"Vasodilatory effect for hairless mouse (red spots, visual)"
1,"COc1cc(CNC(=O)CCCC/C=C/C(C)C)ccc1O [capsaicin, reference compound]",∘
2,"CC(C)CCCCCC(=O)OCc1ccc2c(c1)OCO2 [compound A-1, Piperonyl 7-methyloctanoate]",x
3,"COc1cc(COC(=O)CCCC/C=C/C(C)C)ccc1O [capsiate, 4-hydroxy-3-methoxybenzyl (E)-8-methyl-6-nonenoate, reference compound]",∘
4,"CC(C)CCCCC(=O)OCc1ccc2c(c1)OCO2 [compound A-2, Piperonyl 6-methylheptanoate]",x
5,"CCC(C)CCCCCC(=O)OCc1ccc(OC)c(O)c1 (stereo not shown) [compound B-2, Isovanillyl 7-methyl Nonanoate]",∘
6,"CCC(C)CCCCC(=O)OCc1ccc(OC)cc1 (stereo not shown) [compound C-2, 4-methoxybenzyl 6-methyloctanoate]",x
7,"COc1cc(CO)ccc1O [vanillyl alcohol, reference compound]",x

# Same assay, conditions: 5 wt % in ethanol; listed as Compound B-2
row,Structure (SMILES),Vasodilatory effect in words
1,"CCC(C)CCCCCC(=O)OCc1ccc(OC)c(O)c1 (stereo not shown) [compound B-2, Isovanillyl 7-methyl Nonanoate]",showed a vasodilating effect

# Same assay, conditions: 5 wt % in liquid paraffin
row,Structure (SMILES),"Vasodilatory effect, note in words (onset, duration)"
1,"CCC(C)CCCCCC(=O)OCc1ccc(OC)c(O)c1 (stereo not shown) [compound B-2, Isovanillyl 7-methyl Nonanoate]",did not show a vasodilating effect

# Same assay, conditions: 5 wt % in liquid paraffin, applied to right ear
row,Structure (SMILES),"Vasodilatory effect for hairless mouse (red spots, visual)"
1,"COc1cc(CNC(=O)CCCC/C=C/C(C)C)ccc1O [capsaicin, reference compound]",∘
2,"CC(C)CCCCCC(=O)OCc1ccc2c(c1)OCO2 [compound A-1, Piperonyl 7-methyloctanoate]",x
3,"COc1ccc(COC(=O)CCCCCC(C)C)cc1 [compound C-1, 4-methoxybenzyl 7-methyloctanoate]",Δ
4,"COc1cc(COC(=O)CCCCCCC(C)C)ccc1O [dihydrocapsiate, 4-hydroxy-3-methoxybenzyl 8-methylnonanoate, reference compound]",∘
5,"COc1cc(COC(=O)CCCC/C=C/C(C)C)ccc1OC(C)=O [compound G-1, 4-acetoxy-3-methoxybenzyl (E)-8-methyl-6-nonenoate]",∘
6,"CC(C)CCCCCCC(=O)OCc1ccc(O)cc1 [compound F, 4-hydroxybenzyl 8-methylnonanoate]",Δ
7,"COc1cc(COC(=O)CCCCCC(C)C)ccc1O [nordihydrocapsiate, 4-hydroxy-3-methoxybenzyl 7-methyl-octanoate, reference compound]",∘
8,"COc1cc(COC(=O)CCCC/C=C/C(C)C)ccc1O [capsiate, 4-hydroxy-3-methoxybenzyl (E)-8-methyl-6-nonenoate, reference compound]",∘
9,"COc1ccc(COC(=O)CCCCCC(C)C)cc1O [compound B-1, Isovanillyl 7-Methyloctanoate]",Δ
10,"COc1ccc(COC(=O)CCCCCCC(C)C)cc1O [compound B, Isovanillyl 8-methylnonanoate]",∘
11,"CC(C)CCCCC(=O)OCc1ccc2c(c1)OCO2 [compound A-2, Piperonyl 6-methylheptanoate]",x
12,"CCC(C)CCCCCC(=O)OCc1ccc(OC)c(O)c1 (stereo not shown) [compound B-2, Isovanillyl 7-methyl Nonanoate]",x
13,"CCOc1cc(COC(=O)CCCCCCC(C)C)ccc1O [compound H, 3-ethoxy-4-hydroxybenzyl 8-methylnonanoate]",∘
14,"COc1cc(COC(=O)CCCCCCC(C)C)ccc1OC(C)=O [compound G, 4-acetoxy-3-methoxybenzyl 8-methylnonanoate]",∘
15,"COc1ccc(COC(=O)CCCCCCC(C)C)cc1 [compound C, 4-methoxybenzyl 8-methylnonanoate]",∘
16,"CC(C)CCCCCCC(=O)OCc1ccc2c(c1)OCO2 [compound A, Piperonyl 8-methylnonanoate]",Δ
17,"COc1ccc(COC(=O)CCCCCCC(C)C)cc1OC [compound D, Veratryl 8-methylnonanoate]",x
18,"CCC(C)CCCCC(=O)OCc1ccc(OC)cc1 (stereo not shown) [compound C-2, 4-methoxybenzyl 6-methyloctanoate]",x
19,"COc1cc(CO)ccc1O [vanillyl alcohol, reference compound]",x

# Same assay, conditions: 5 wt % solution; solvents as in Tables 2 and 3
row,Structure (SMILES),Vasodilating effect
1,"CC(C)CCCCCC(=O)OCc1ccc2c(c1)OCO2 [compound A-1, Piperonyl 7-methyloctanoate]",did not show a vasodilating effect
2,"COc1ccc(COC(=O)CCCCCC(C)C)cc1 [compound C-1, 4-methoxybenzyl 7-methyloctanoate]",weak vasodilating effect
3,"COc1cc(COC(=O)CCCC/C=C/C(C)C)ccc1OC(C)=O [compound G-1, 4-acetoxy-3-methoxybenzyl (E)-8-methyl-6-nonenoate]",strong vasodilating effect
4,"CC(C)CCCCCCC(=O)OCc1ccc(O)cc1 [compound F, 4-hydroxybenzyl 8-methylnonanoate]",weak vasodilating effect
5,"COc1ccc(COC(=O)CCCCCC(C)C)cc1O [compound B-1, Isovanillyl 7-Methyloctanoate]",weak vasodilating effect
6,"COc1ccc(COC(=O)CCCCCCC(C)C)cc1O [compound B, Isovanillyl 8-methylnonanoate]",strong vasodilating effect
7,"CC(C)CCCCC(=O)OCc1ccc2c(c1)OCO2 [compound A-2, Piperonyl 6-methylheptanoate]",did not show a vasodilating effect
8,"CCOc1cc(COC(=O)CCCCCCC(C)C)ccc1O [compound H, 3-ethoxy-4-hydroxybenzyl 8-methylnonanoate]","clear vasodilating effect, though the expression of the effect was slow"
9,"COc1cc(COC(=O)CCCCCCC(C)C)ccc1OC(C)=O [compound G, 4-acetoxy-3-methoxybenzyl 8-methylnonanoate]",strong vasodilating effect
10,"COc1ccc(COC(=O)CCCCCCC(C)C)cc1 [compound C, 4-methoxybenzyl 8-methylnonanoate]",strong vasodilating effect
11,"CC(C)CCCCCCC(=O)OCc1ccc2c(c1)OCO2 [compound A, Piperonyl 8-methylnonanoate]",weak vasodilating effect
12,"COc1ccc(COC(=O)CCCCCCC(C)C)cc1OC [compound D, Veratryl 8-methylnonanoate]",did not show a vasodilating effect
13,"CCC(C)CCCCC(=O)OCc1ccc(OC)cc1 (stereo not shown) [compound C-2, 4-methoxybenzyl 6-methyloctanoate]",did not show a vasodilating effect

# Test system: not listed separately
# Test: Stability on contact with silica gel, yield (recovery rate) of PTLC purification as index
# Format: physicochemical
# Details: not given
# Experimental: Using vanillyl alcohol (1.70 g, 11.0 mmol) instead of piperonyl alcohol, and n-decanoic acid (1.72 g, 10 mmol) instead of 8-methylnonanoic acid in Example 1, a reaction similar to Example 1 was performed.
# Using the yield (recovery rate) of purification by silica gel chromatography (PTLC) as an index, the stability of each Example compound was confirmed.
Structure (SMILES),"Stability on purification by PTLC (contact with silica gel), in words","Yield (recovery rate) after purification by PTLC, index of stability"
"COc1ccc(COC(=O)CCCCCCC(C)C)cc1O [compound B, Isovanillyl 8-methylnonanoate]",not decomposed even after purification by PTLC,81.0%
"CCCCCCCCCC(=O)OCc1ccc(O)c(OC)c1 [vanillyl decanoate, reference compound]",decomposed by the contact with silica gel,43.1%
"COc1cc(COC(=O)CCCCCCC(C)C)ccc1OC(C)=O [compound G, 4-acetoxy-3-methoxybenzyl 8-methylnonanoate]",not decomposed even after purification by PTLC,82.9% and 85.7%
"COc1ccc(COC(=O)CCCCCCC(C)C)cc1 [compound C, 4-methoxybenzyl 8-methylnonanoate]",not decomposed even after purification by PTLC,90.2%
"CC(C)CCCCCCC(=O)OCc1ccc2c(c1)OCO2 [compound A, Piperonyl 8-methylnonanoate]",stabler than vanillyl decanoate even upon contact with silica gel,84.3%
"COc1ccc(COC(=O)CCCCCCC(C)C)cc1OC [compound D, Veratryl 8-methylnonanoate]",not decomposed even after purification by PTLC,89.1%
